Where no end group is shown, it is not given here.

These results are taken from patent US8575089B2, “Composition for preventing or treating inflammation” (University-Industry Cooperation Group of Kyung Hee, priority 2009, dated 2013).

The subject of assay [1] is mononuclear cells in blood. In words: Corneal epithelial burn model: number of mononuclear cells in blood. The format is in vivo, New Zealand white rabbit. The note with it: rabbit, alkali burn of cornea; 5 nmole/kg SP i.v. immediately and 24 hours after burning; vs continuously increased without SP; FIG. 4. How it is done: (§1) Ketalar (50 mg/ml, Yuhan Corporation) and Rompun (23.32 mg (Xylazine hydrochloride)/ml, Bayer Korea Corporation) were mixed in a rate of 2:1, and then total 900 μl (Ketalar 600 μl: Rompun 300 μl) was injected into muscles of rabbits (New Zealand white rabbit, Male, 2.5 kg, n=4). After the intramuscular injection, 300 μl (Ketalar 200 μl: Rompun 100 μl) of the same anesthetic drug was injected in the rabbit's ear vein.
A 6 mm paper disc fully wetted by 1N NaOH was contacted to a limbus part of rabbit's cornea for 10 seconds. After alkali burning, corneal epithelium was removed in a size of the paper disc. The rabbit's eyes were quickly washed with a physiological saline immediately after alkali burning. At the same time, 5 nmole/kg of SP dissolved in a physiological saline was intravenously injected, and then after 24 hours, was injected once more (immediately after burning and at 24 hours after burning). For the control, PBS with the same volume was injected (injection Volume: 1 ml).
Peripheral blood was collected from ear veins in 10 ml at one, three, five and seven days after alkali burning. […]
The blood obtained from the above step was diluted twice with PBS, and then carefully put on Ficoll in a tube. […] Then, after adding 30 ml of PBS and centrifuging (washing step), the number of cells was counted to confirm the number of cells per 1 ml and then the results were shown in FIG. 4.

In a further assay the test system is leukocytes in blood. In words: Corneal epithelial burn model: number of leukocytes in blood. As to conditions: rabbit, alkali burn of cornea; 5 nmole/kg SP i.v. twice; after three days after burning; vs continuously increased without SP; FIG. 6. Format: in vivo, New Zealand white rabbit. How it is done: as §1
A 6 mm paper disc fully wetted by 1N NaOH was contacted to a limbus part of rabbit's cornea for 10 seconds. After alkali burning, corneal epithelium was removed in a size of the paper disc. The rabbit's eyes were quickly washed with a physiological saline immediately after alkali burning. At the same time, 5 nmole/kg of SP dissolved in a physiological saline was intravenously injected, and then after 24 hours, was injected once more (immediately after burning and at 24 hours after burning). For the control, PBS with the same volume was injected (injection Volume: 1 ml). […]
2 ml of the whole 10 ml was used for counting blood cells and the number of leukocytes was analyzed in Neodin (Company for analysis of blood cells). Concretely, 2 ml of blood was added to a vial including EDTA; it was well mixed; then the whole leukocyte level was analyzed in an automatic analyzer (SYSMEX XE-2100 automatic analyzer from SYSMEX Corporation [Japan]); and then the results were shown in FIG. 6.

For another assay, the system named is IL-6 and TNFα. The assay can be described thus: Radiation-irradiating model: inflammatory cytokines IL-6 and TNFα in serum (ELISA). The note with it: mice, 8 Gy, 5 nmole/kg SP i.v. The format is in vivo, C57b1/6 mice. As to the method:
5 nmole/kg of SP dissolved in a physiological saline was injected to a tail vein of C57b1/6 mice (8 weeks, sex; male, n=4, Average weight; 20 g) one day before irradiation and immediately after irradiation. The irradiation was performed at 8 Gy radiation in a Gamma lay radiation irradiator (^137Cs, Atomic Energy of Canada, Mississauga, Canada). The mice were sacrificed at 4.5 hours and one day after irradiation, and then the blood was collected. The part of the blood was used for analyzing CBC (Complete Blood Count) and the remaining blood was used to isolate serum and then analyze cytokines
IL-6 and TNFα that are well known as inflammatory cytokines were analyzed. Specific procedures were as follows: Serum samples stored in […] and reagents, controls, and standard proteins stored in a cold storage were taken out at a room temperature. 50 μl of diluted solution was put into each well; 50 μl of standard, control, and samples were added; well mixed by lightly tapping the plate; and then placed for 2 hours at a room temperature. […] After 30 minutes, 100 μl of stop codon was treated to stop the reaction; the optical density was measured at 450 nm; the amounts of cytokines were converted based on a protein conversion formula by a standard sample; and then the result was shown in FIG. 8. […]
Background: In an ELISA, binding on a coated surface is turned into a signal by an enzyme label.

Turning to “Substance-P (RPKPQQFFGLM; not fully specified; ends and bridges not checked; UniProt P20366 58-68, looked up)”, in assay [1], the “total number of mononuclear cells per 1 ml blood” value is listed as “decreased at seven days”. The “number of leukocytes in blood (increase % based on Day 0-level)” value in the assay on leukocytes in blood is reported as “sharply decreased”. Besides, the “inhibition of increase of IL-6 in serum” value with IL-6 and TNFα (4.5 hours after irradiation, vs group without SP, FIG. 8A) was “about 30%”. Moreover, the “TNF α in serum” value in the assay with IL-6 and TNFα (one day after irradiation, FIG. 8) is on record as “inhibited”.
